# In publication PMC12514245, “Impaired migration and lung invasion of human melanoma by a novel small molecule targeting the transmembrane domain of death receptor p75^NTR” (EMBO Molecular Medicine, 2025):
# Where “and” joins values, the source holds several entries; their conditions need not be identical. Identical values can stand only once.
# What was measured:
# [1] = test system: A875-NT melanoma xenograft; test: Melanoma lung invasion assay, A875-NT, delayed treatment 3 weeks after cell injection; assay type: in vivo, SCID mice; conditions: A875-NT, group average
# Experimental: (§1) Finally, we investigated whether delayed administration of Np75-4A22 was able to affect engraftment and growth of metastatic tumors in the lung. To this end, drug treatment (orally at 200 mg/kg) was initiated 3 weeks after intravenous injection of A875-NT or A875-shp75 cells in female SCID mice and continued for additionally 4 weekly cycles (5 days on/2 days off) as above (Fig. 8E). Metastatic spread to the lungs was monitored weekly by bioluminescent imaging of luciferase-expressing melanoma cells. […] We conclude that Np75-4A22 can be efficacious at reducing the spread and seeding of melanoma cells in the lung when administered either before or after cell implantation.
# (§2) Eight-week-old female SCID mice (Charles River Laboratories, Shrewsbury, MA, USA) were housed in groups of three to five and maintained on a 12-h light/dark schedule with a temperature of 22 °C ± 1 °C and a relative humidity of 50% ± 5%. Food and water were available ad libitum. This research study was reviewed and approved by the University of Calgary Animal Care Committee (AC22-0054) and McGill University (AUP-JGH-8269) and adheres to established ethical principles and guidelines. A875-GFPLuc (A875-NT) or A875-GFPLuc shp75 (A875-shp75) cells harvested using Puck’s EDTA were resuspended in PBS and injected intravenously into SCID mice (5 × 10^5 cells/200 μl per mouse). Np75-4A22 was dissolved in 0.5% sodium carboxymethyl cellulose (NaCMC) in reverse osmosis H2O and administered by oral gavage at 200 mg/kg/day starting one day prior to intravenous (tail vein) injection of tumor cells and continued for 3 1-week cycles (cycle: 5 days on drug, 2 days off drug). Tumor spread to the lung was monitored weekly by luciferase activity using the Xenogen IVIS-200 Optical in vivo luciferase imaging system as described previously (Lun et al, [2016]) and by immunohistochemistry (IHC) at designated time points. IHC was performed after formalin fixation, paraffin embedding and sectioning of the lungs, using a human-specific mouse polyclonal nucleolin antibody (1:500 dilution) and detected using Dako liquid DAB+ Substrate Chromogen System (Dako: k3468, California, USA) followed by a hematoxylin counterstain (Sigma, Oakville, ON, Canada). Sections were mounted and imaged on an Olympus phase contrast microscope (Olympus Life Science, Tokyo, Japan). For immunofluorescence, sections were stained with anti-human nucleolin and anti-human p75NTR antibodies (1:1000 dilution), subsequently detected with 1:200 dilutions of Alexa Fluor™ 488 Goat anti-Mouse IgG (H + L) Highly Cross-Adsorbed Secondary Antibody and Alexa Fluor™ 568 Goat anti-Rabbit IgG (H + L) Cross-Adsorbed Secondary Antibody. Sections were further stained with DAPI to detect all nuclei. Between each treatment, TBS Automation Wash Buffer (Biocare Medical TWB945M) was employed. Images were taken with LSM800 confocal microscope and ZEN system.
# [2] = test system: A875-shp75 melanoma xenograft; test: Melanoma lung invasion assay, A875-shp75, delayed treatment 3 weeks after cell injection; assay type: in vivo, SCID mice; conditions: group average
# Experimental: as §1, §2
# [3] = test system: AS19 E. coli; test: Bacterial toxicity (OD630) in the AraTM assay; assay type: cell-based; conditions: compared with Div17E5
# [4] = test system: A875 NT cells; test: Wound healing cell motility assay, A875 NT; assay type: cell-based, human; conditions: for Wound area (Fold), Mean / Wound area (Fold), individual replicates: 10uM
# Experimental: For wound healing assay, cells were grown until confluency and subjected to a wound across the cell mono-layer. Cells were then incubated with serum-free media either with DMSO or a small molecule (with or without 5 µM Q_VD_poH) and imaged at specific time-points. Cell migration is reflected as fold change in wound area over time.
# [5] = molecular target: T1, p75^NTR TMD (Homo sapiens, UniProt P08138); test: AraTM assay, wild-type p75NTR TMD (GFP/OD630); assay type: cell-based; conditions: structure-activity comparison
# T1 sequence (P08138 250-275 limits assumed): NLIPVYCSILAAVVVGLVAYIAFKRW
smiles,measurement,setting,value
Cc1cccc(-c2cncc(Nc3ccc(Br)c(Cl)c3Cl)n2)c1C [4A-22],"Average Photons/second/week, wk2",[1]; wk2,77712.5 Photons/second
same,"Average Photons/second/week, wk3",[1]; wk3,189000 Photons/second
same,"Average Photons/second/week, wk4",[1]; wk4,170125 Photons/second
same,"Average Photons/second/week, wk5",[1]; wk5,304375 Photons/second
same,"Average Photons/second/week, wk6",[1]; wk6,845350 Photons/second
same,"Average Photons/second/week, wk7",[1]; wk7,3166750 Photons/second
same,"Average Photons/second/week, wk2",[2]; wk2,9.88E+04 Photons/second
same,"Average Photons/second/week, wk3",[2]; wk3,1.46E+05 Photons/second
same,"Average Photons/second/week, wk4",[2]; wk4,1.10E+05 Photons/second
same,"Average Photons/second/week, wk5",[2]; wk5,2.77E+05 Photons/second
same,"Average Photons/second/week, wk6",[2]; wk6,4.60E+05 Photons/second
same,"Average Photons/second/week, wk7",[2]; wk7,1.10E+06 Photons/second
CN(C)c1cccc(-c2cncc(Nc3ccc(Br)c(Cl)c3Cl)n2)c1 [MS_63],"bacterial toxicity, as assessed by OD630",[3],somewhat lower bacterial toxicity
same,"wound healing assay, comparison of Div17E5, MS_18 and MS_63",[4]; 10 µM,lower potency
same,"Wound area (Fold), Mean",[4]; 0 hours,1 Fold
same,"Wound area (Fold), individual replicates",[4]; 0 hours,1.000 Fold
same,"Wound area (Fold), Mean",[4]; 3 hours,0.912 Fold
same,"Wound area (Fold), individual replicates",[4]; 3 hours,0.916 Fold and 0.908 Fold
same,"Wound area (Fold), Mean",[4]; 6 hours,0.874 Fold
same,"Wound area (Fold), individual replicates",[4]; 6 hours,0.869 Fold and 0.879 Fold
same,"Wound area (Fold), Mean",[4]; 9 hours,0.827 Fold
same,"Wound area (Fold), individual replicates",[4]; 9 hours,0.786 Fold and 0.869 Fold
same,"Wound area (Fold), Mean",[4]; 12 hours,0.792 Fold
same,"Wound area (Fold), individual replicates",[4]; 12 hours,0.755 Fold and 0.828 Fold
same,"Wound area (Fold), Mean",[4]; 15 hours,0.762 Fold
same,"Wound area (Fold), individual replicates",[4]; 15 hours,0.728 Fold and 0.796 Fold
same,"Wound area (Fold), Mean",[4]; 18 hours,0.73 Fold
same,"Wound area (Fold), individual replicates",[4]; 18 hours,0.704 Fold and 0.756 Fold
same,"Wound area (Fold), Mean",[4]; 21 hours,0.71 Fold
same,"Wound area (Fold), individual replicates",[4]; 21 hours,0.683 Fold and 0.737 Fold
same,"Wound area (Fold), Mean",[4]; 24 hours,0.697 Fold
same,"Wound area (Fold), individual replicates",[4]; 24 hours,0.666 Fold and 0.729 Fold
COc1ccccc1-c1cncc(Nc2ccc([N+](=O)[O-])cc2)n1 [Np75-3A01],activity in the AraTM assay,[5],"MS_18 more potent than Np75-3A01, -3A02"
COc1cccc(-c2cncc(Nc3ccc([N+](=O)[O-])cc3)n2)c1 [Np75-3A02],activity in the AraTM assay,[5],"MS_18 more potent than Np75-3A01, -3A02"
Cc1ccccc1-c1cncc(Nc2ccc([N+](=O)[O-])cc2)n1 [Np75-3A19],activity in the AraTM assay,[5],Np75-3A21 better than -3A19 and -3A20
